In the supplement of paper PMC11061612:

Tests used:
Test in all cases: Bliss excess, mean over the matrix (fraction); higher = more synergy
[1] = system: SNG-M (Endometrial Carcinoma)
In short: (§1)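 Cell lines grown in DMEM/F12 or RPMI with 10% FBS were plated in 1536-well plates and held 24 hours at 37°C, 5% CO2 before 72 hours of exposure to two-drug dose matrices, with DMSO typically at 0.2%. CellTiter-Glo 2.0 luminescence gave viability, which was converted to inhibition. Vehicle wells were set to 0 and blank wells to 1. Combination Emax is the second-highest inhibition in the matrix, and Bliss excess is the observed combination effect minus the expected EA + EB − EA·EB, where EA and EB are the single-agent effects.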

D-392MG (Glioblastoma) = system: D-392MG (Glioblastoma)
In short: as §1

SK-MEL-1 (Melanoma) = system: SK-MEL-1 (Melanoma)
In short: as §1

[2] = system: SK-LMS-1 (Other Solid Carcinomas)
In short: as §1

[3] = system: BICR78 (Oral Cavity Carcinoma)
In short: as §1

[4] = system: NOMO-1 (Acute Myeloid Leukemia)
In short: as §1

EW-22 (Ewing's Sarcoma) = system: EW-22 (Ewing's Sarcoma)
In short: as §1

[5] = system: SLVL (B-Cell Non-Hodgkin's Lymphoma)
In short: as §1

[6] = system: SW948 (Colorectal Carcinoma)
In short: as §1

[7] = system: HLE (Hepatocellular Carcinoma)
In short: as §1

[8] = system: FU-OV-1 (Ovarian Carcinoma)
In short: as §1

[9] = system: SK-UT-1 (Other Solid Carcinomas)
In short: as §1

[10] = system: DOK (Oral Cavity Carcinoma)
In short: as §1

[11] = system: TC-YIK (Other Solid Carcinomas)
In short: as §1

HCC38 (Breast Carcinoma) = system: HCC38 (Breast Carcinoma)
In short: as §1

[12] = system: YT (Other Blood Carcinomas)
In short: as §1

CS1 (Chondrosarcoma) = system: CS1 (Chondrosarcoma)
In short: as §1

[13] = system: P31-FUJ (Acute Myeloid Leukemia)
In short: as §1

[14] = system: WSU-DLCL2 (B-Cell Non-Hodgkin's Lymphoma)
In short: as §1

Saos-2 (Osteosarcoma) = system: Saos-2 (Osteosarcoma)
In short: as §1

SMILES | Bliss excess [1] | Bliss excess (D-392MG (Glioblastoma)) | Bliss excess (SK-MEL-1 (Melanoma)) | Bliss excess [2] | Bliss excess [3] | Bliss excess [4] | Bliss excess (EW-22 (Ewing's Sarcoma)) | Bliss excess [5] | Bliss excess [6] | Bliss excess [7] | Bliss excess [8] | Bliss excess [9] | Bliss excess [10] | Bliss excess [11] | Bliss excess (HCC38 (Breast Carcinoma)) | Bliss excess [12] | Bliss excess (CS1 (Chondrosarcoma)) | Bliss excess [13] | Bliss excess [14] | Bliss excess (Saos-2 (Osteosarcoma))
Cc1c2c(nn1C)CSCc1cc(n(C)n1)CSc1cc(c3ccccc3c1)OCCCc1c(C(=O)O)n(C)c3c-2c(Cl)ccc13 [AZD5991] + CS(=O)(=O)CCNCc1ccc(-c2ccc3ncnc(Nc4ccc(OCc5cccc(F)c5)c(Cl)c4)c3c2)o1 [Lapatinib] (first compound max 1 µM, 7x7, partner max 10 µM) | -0.0254 | -0.0727 | 0.026 | -0.0101 | -0.0065 | -0.0873 | -0.0028 | 0.0502 | -0.0171 | 0.0311 | -0.0179 | 0.032 | 0.111 | -0.0418 | -0.0638 | 0.0331 | -0.0458 | -0.0445 | 0.0601 | -0.0071
CN(CCO)CC[C@H](CSc1ccccc1)Nc1ccc(S(=O)(=O)NC(=O)c2ccc(N3CCC([C@@H](O)c4ccccc4-c4ccc(Cl)cc4)CC3)cc2)cc1S(=O)(=O)C(F)(F)F [AZD4320] + CC(=O)O[C@H]1C(=O)[C@@]2(C)[C@H]([C@H](OC(=O)c3ccccc3)[C@]3(O)C[C@H](OC(=O)[C@H](O)[C@@H](NC(=O)c4ccccc4)c4ccccc4)C(C)=C1C3(C)C)[C@]1(OC(C)=O)CO[C@@H]1C[C@@H]2O [Paclitaxel] (first compound max 1 µM, 7x7, partner max 3 µM) | 0.0275 | 0.129 | 0.0354 | 0.0954 | 0.0354 | -0.0101 | 0.0397 | 0.032 | -0.0074 | -0.0036 | 0.0924 | -0.0007 | 0.0565 | 0.0183 | 0.0324 | -0.0079 | 0.041 | -0.0004 | -0.0101 | 0.0937
C=CCn1c(=O)c2cnc(Nc3ccc(N4CCN(C)CC4)cc3)nc2n1-c1cccc(C(C)(C)O)n1 [AZD1775] + CCc1c2c(nc3ccc(O)cc13)-c1cc3c(c(=O)n1C2)COC(=O)[C@]3(O)CC [SN-38] (first compound max 1 µM, partner max 0.3 µM) | -0.0087 | -0.0704 | 0.0154 | -0.0441 | -0.0403 | -0.0208 | -0.0286 | -0.0701 | 0.141 | -0.0436 | -0.102 | -0.032 | -0.0096 | -0.0451 | -0.0765 | -0.0418 | -0.0705 | 0.0049 | 0.003 | -0.0514
Cc1c2c(nn1C)CSCc1cc(n(C)n1)CSc1cc(c3ccccc3c1)OCCCc1c(C(=O)O)n(C)c3c-2c(Cl)ccc13 [AZD5991] + Nc1ccn([C@@H]2O[C@H](CO)[C@@H](O)C2(F)F)c(=O)n1 [Gemcitabine] (first compound max 1 µM, 7x7, partner max 0.3 µM) | -0.0174 | -0.112 | -0.0226 | -0.009 | -0.0851 | -0.0065 | -0.0071 | -0.014 | 0.0016 | 0.0249 | -0.0321 | -0.0367 | -0.0008 | -0.0315 | -0.0432 | 0.0413 | -0.0411 | 0.0115 | 0.0128 | 0.0374
N#Cc1cnc(Nc2cc(NC[C@H]3CNCCO3)c(C(F)(F)F)cn2)cn1 [SRA737] + CCc1c2c(nc3ccc(O)cc13)-c1cc3c(c(=O)n1C2)COC(=O)[C@]3(O)CC [SN-38] (first compound max 10 µM, 7x7, partner max 0.3 µM) | -0.111 | -0.0555 |  | -0.0248 | -0.0015 | -0.039 | -0.0592 | -0.0909 | 0.154 | -0.0755 | -0.0076 | -0.0033 | -0.0531 | -0.0041 | -0.049 | -0.0677 | -0.0579 | -0.0541 | 0.0055 | -0.0303
N#Cc1cnc(Nc2cc(NC[C@H]3CNCCO3)c(C(F)(F)F)cn2)cn1 [SRA737] + C=CCn1c(=O)c2cnc(Nc3ccc(N4CCN(C)CC4)cc3)nc2n1-c1cccc(C(C)(C)O)n1 [AZD1775] (first compound max 10 µM, partner max 1 µM) | -0.0045 | -0.0523 | -0.0195 | 0.112 | -0.0326 | 0.0706 | 0.0315 | 0.0581 | 0.0054 | 0.013 | 0.0719 | 0.0497 | -0.0139 | 0.0278 | 0.0088 | 0.0379 | 0.0399 | 0.0411 | 0.205 | 0.0939
Cc1cc2ncnn2cc1Nc1ncc2c(n1)n(C1CCOCC1)c(=O)n2C [AZD7648] + COc1cc([C@@H]2c3cc4c(cc3[C@@H](O[C@@H]3O[C@@H]5CO[C@@H](C)O[C@H]5[C@H](O)[C@H]3O)[C@H]3COC(=O)[C@H]23)OCO4)cc(OC)c1O [Etoposide] (first compound max 10 µM, 7x7, partner max 10 µM) | 0.157 | 0.0658 | 0.0651 | 0.172 | 0.0789 | 0.113 | 0.112 | 0.0824 | -0.0456 | 0.116 | -0.0047 | 0.117 | 0.109 | 0.0886 | 0.0373 | 0.0495 | 0.017 | 0.101 | 0.185 | 0.054
C[C@@H](Oc1cc(-c2cnn(C3CCNCC3)c2)cnc1N)c1c(Cl)ccc(F)c1Cl [Crizotinib] + CC1=C(C(=CC=C1)Cl)NC(=O)C2=CN=C(S2)NC3=CC(=NC(=N3)C)N4CCN(CC4)CCO [Dasatinib] (first compound max 10 µM, 7x7, partner max 2 µM) | 0.0813 | 0.0503 | -0.0554 | 0.153 | 0.0142 | -0.025 | -0.0466 | 0.0167 | -0.0118 | 0.0195 | 0.0761 | 0.0539 | -0.0008 | -0.0378 | 0.0255 | 0.0714 | 0.112 | -0.0311 | 0.0824 | 0.0807
N#Cc1cnc(Nc2cc(NC[C@H]3CNCCO3)c(C(F)(F)F)cn2)cn1 [SRA737] + Nc1ccn([C@@H]2O[C@H](CO)[C@@H](O)C2(F)F)c(=O)n1 [Gemcitabine] (first compound max 10 µM, 7x7, partner max 0.3 µM) | -0.0731 | 0.0579 | 0.0048 | 0.0202 | 0.068 | -0.0169 | -0.0202 | 0.0004 | 0.079 | 0.029 | -0.0233 | 0.0162 | 0.0191 | -0.0605 | -0.0054 | 0.0694 | 0.0679 | 0.057 | 0.111 | 0.0276
C[C@@H](Oc1cc(-c2cnn(C3CCNCC3)c2)cnc1N)c1c(Cl)ccc(F)c1Cl [Crizotinib] + Cn1cnc2c(F)c(Nc3ccc(Br)cc3Cl)c(C(=O)NOCCO)cc21 [Selumetinib] (first compound max 10 µM, 7x7, partner max 10 µM) | -0.0333 | -0.0718 | -0.0618 | 0.0367 | 0.0006 | 0.0157 | -0.0226 | -0.0414 | 0.0137 | 0.0014 | 0.0748 | 0.0041 | 0.017 | -0.0663 | -0.0447 | -0.0587 | -0.0203 | -0.0781 | -0.0458 | -0.0337
C[C@@H]1COCCN1c1cc(C2([S@](C)(=N)=O)CC2)nc(-c2ccnc3[nH]ccc23)n1 [AZD6738] + C1CC(C1)(C(=O)[O-])C(=O)[O-].N.N.[Pt+2] [Carboplatin] (first compound max 10 µM, 7x7, partner max 10 µM) | -0.0448 | -0.0311 | -0.048 | -0.032 | -0.0459 | -0.0037 | -0.0301 | -0.0419 | -0.0659 | 0.0173 | -0.0576 | -0.0214 | 0.0086 | -0.0631 | -0.0516 | -0.0397 | -0.0674 | -0.0078 | 0.0217 | -0.0302
O=C(c1cc(Cc2n[nH]c(=O)c3ccccc23)ccc1F)N1CCN(C(=O)C2CC2)CC1 [Olaparib] + CC1(C)CCC(CN2CCN(c3ccc(C(=O)NS(=O)(=O)c4ccc(NCC5CCOCC5)c([N+](=O)[O-])c4)c(Oc4cnc5[nH]ccc5c4)c3)CC2)=C(c2ccc(Cl)cc2)C1 [Venetoclax] (first compound max 10 µM, 7x7, partner max 1 µM) | -0.0347 | -0.0886 | -0.023 | -0.012 | -0.0733 | 0.0666 | 0.0348 | 0.0864 | -0.0528 | -0.0308 | -0.0467 | 0.0047 | -0.0426 | -0.0304 | -0.0247 | 0.0335 | -0.0621 | -0.0121 | 0.0235 | -0.0289
C[C@@H]1COCCN1c1cc(C2([S@](C)(=N)=O)CC2)nc(-c2ccnc3[nH]ccc23)n1 [AZD6738] + Nc1ccn([C@@H]2O[C@H](CO)[C@@H](O)C2(F)F)c(=O)n1 [Gemcitabine] (first compound max 10 µM, 7x7, partner max 0.3 µM) | -0.0277 | -0.0224 | 0.0174 | 0.0139 | 0.0298 | 0.058 | 0.0068 | -0.0284 | 0.0448 | 0.105 | -0.0143 | 0.0317 | 0.0785 | -0.0046 | 0.0715 | 0.124 | 0.075 | 0.0545 | 0.0721 | 0.0312
C=CCn1c(=O)c2cnc(Nc3ccc(N4CCN(C)CC4)cc3)nc2n1-c1cccc(C(C)(C)O)n1 [AZD1775] + Nc1ccn([C@@H]2O[C@H](CO)[C@@H](O)C2(F)F)c(=O)n1 [Gemcitabine] (first compound max 1 µM, partner max 0.3 µM) | -0.0314 | 0.013 | -0.0469 | -0.027 | 0.0412 | 0.0485 | -0.0431 | -0.0357 | 0.104 | 0.0609 | -0.0741 | -0.0194 | -0.0216 | -0.0642 | 0.0214 | 0.0337 | -0.0007 | 0.0797 | 0.0694 | -0.0728
